Assay results as given in patent publication US4175081A, “5-Substituted thiadiazole ureas” (priority 1977, dated 1979).

How the values were obtained:
Barnyard grass (BG) [1] = assay: Post-emergence herbicide test; assay type: in vivo; conditions: Echinochloa crus-galli, 336 h, two weeks after treatment
Method in brief: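 Greenhouse pot-grown barnyard grass seedlings sprayed post-emergence at 8 lbs active compound per acre (some at 4 lbs/acre) in 38 gallons per acre, then sub-irrigated. Injury or control rated visually two weeks after treatment.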

Sinapis [2] = assay: Field test, post-emergence application; assay type: in vivo; design: unit not given here; conditions: 2 lbs/acre, reading 0 = no effect, 10 = completely killed, 8 and 14 days
Description: (§1) Tests have also been made for the compound of Example 1 with Sinapis, oats and wheat. This test was conducted according to the following procedure.
(§2) Forty rows, 70 feet long, were planted to weeds and crops. Two rows were planted on each bed. Beds were 40 inches apart from center to center. The two rows were about 10 inches apart on each bed. Beds were rolled prior to planting to provide a uniform smooth surface. Soil temperature at a depth of 11/2 inches was 66° F. at time of planting. Post-emergence applications were made by spraying bands across rows 10 feet wide using a self-propelled plot sprayer with a 10 foot boom equipped with Teejet 8001 flat spray nozzle tips and operated at 40 psi. A total of 84 fluid ounces of spray material was applied to three replicates. Each replicate plot was 10 feet wide by 66.67 feet long.
(§3) Eight days after the application, readings were made on the effect of the chemicals on each crop and weed in the post-emergence treatment. A reading of 0 was recorded if no effect was observed; 10 recorded if the plants were completely killed, and readings of 1 to 9 for intermediate kills. A second reading of the post-emergence treatments was made 14 days after the application.

Sinapis [3] = assay: Field test, pre-emergence application; assay type: in vivo; conditions: reading 0 = no effect, 10 = completely killed, 14 and 20 days
Description: as §1
as §2, with “long. […]” for “long.”
as §3
Readings were made 14 and 20 days after the pre-emergence application.

[4] = tested on: variety of crops and weed species; assay: Pre- and post-emergence herbicide tests, overall assessment of Tables III-VI; assay type: in vivo; conditions: data of Tables III-VI
Method in brief: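 Crops and weeds grown in potting soil were sprayed at 8 lbs. compound per acre in 38 gallons per acre, pre-emergence pots seeded one day before treatment. Injury or control was visually rated two weeks after treatment.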

Turnip (TP) [5] = assay: Pre-emergence herbicide test; assay type: in vivo, Brassica sp.; conditions: Brassica rapa, pre-emergence, 336 h, two weeks after treatment
Method in brief: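 In this pre-emergence greenhouse test, turnip was seeded on the surface of potting soil in 3' plastic pots, lightly covered with screened soil, and watered from below. One day later the pots were sprayed in a belt-fed spray hood. Watering continued only by sub-irrigation, and percent control was visually scored two weeks after treatment.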

[6] = Acute oral toxicity in rats; conditions: rat, in vivo
Amaranth pigweed (PW) [7] = assay: Pre-emergence herbicide test; assay type: in vivo, Amaranthus retroflexus; conditions: 336 h, two weeks after treatment
Method in brief: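 Visual injury or control ratings were made at two weeks on pre-emergence pots, sub-irrigated in the greenhouse. Seeds were sown a day before a hood spray delivering 8 lbs/acre (or 4 lbs/acre) of compound in 38 gallons per acre.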

Crabgrass (CG) [8] = assay: Post-emergence herbicide test; assay type: in vivo, Digitaria sanquinalis; conditions: Digitaria sanguinalis, post-emergence, 336 h, two weeks after treatment
Method in brief: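 Crabgrass (Digitaria sanquinalis) was surface seeded individually in 3' plastic pots of potting soil, covered with screened soil, and watered by sub-irrigation in greenhouse trays. Planting was staggered so seedlings reached the target stage together. Post-emergence sprays were applied in a hood with a removable belt and fixed nozzle, and control was visually rated two weeks after treatment.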

Cotton (CT) [9] = assay: Pre-emergence herbicide test; assay type: in vivo, Gossypium hirsutum var. DPL smooth leaf; conditions: Gossypium hirsutum, 336 h, two weeks after treatment
Method in brief: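 Visual injury/control ratings were taken at two weeks post-spray. Pots seeded a day earlier received compound pre-emergence at 8 lbs/acre, or 4 lbs/acre, in a 38 gallon/acre spray volume, and were then held in the greenhouse, watered only from below.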

[10] = tested on: Yellow foxtail grass (YF); assay: Post-emergence herbicide test; assay type: in vivo, Setaria glauca; conditions: Setaria, 336 h, two weeks after treatment
Method in brief: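 Visual rating of injury/control made 2 weeks post-spray. Seedlings at a uniform growth stage in soil-filled pots received a hood spray of 8 lbs/acre active compound, 38 gallons/acre volume, with a 4 lbs/acre rate also formulated. Watering was by sub-irrigation only.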

Crabgrass (CG) [11] = assay: Pre-emergence herbicide test; assay type: in vivo, Digitaria sanquinalis; conditions: Digitaria sanguinalis, pre-emergence, 336 h, two weeks after treatment
Method in brief: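 Crabgrass (Digitaria sanquinalis) was surface seeded in 3' plastic pots of potting soil, covered with screened soil, and watered by sub-irrigation in greenhouse trays. Pots were seeded one day before spraying in a hood with a moving belt and fixed nozzle. Plants stayed in the greenhouse on sub-irrigation, and pre-emergence control was rated visually two weeks after treatment.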

Turnip (TP) [12] = assay: Post-emergence herbicide test; assay type: in vivo, Brassica sp.; conditions: Brassica rapa, post-emergence, 336 h, two weeks after treatment
Method in brief: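 A greenhouse post-emergence herbicide test on turnip. Seeds were sown on the surface of potting soil in 3' plastic pots, lightly covered with screened soil and watered from below. Planting was timed so seedlings had 1 or 2 true leaves above the cotyledons at spraying, done in a hood with a fixed nozzle. Control or injury was scored by eye after two weeks.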

Cotton (CT) [13] = assay: Post-emergence herbicide test; assay type: in vivo, Gossypium hirsutum var. DPL smooth leaf; conditions: Gossypium hirsutum, post-emergence, 336 h, two weeks after treatment
Method in brief: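 This greenhouse post-emergence test measured how well spray treatments controlled cotton. Seedlings of Gossypium hirsutum var. DPL smooth leaf, with expanded cotyledons and a first true leaf 1' in length, were sprayed with 50 ml formulations in a belt-fed spray hood. They were then returned to the greenhouse and watered only by sub-irrigation. Injury was scored visually as % control after two weeks.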

Barnyard grass (BG) [14] = assay: Pre-emergence herbicide test; assay type: in vivo; conditions: Echinochloa crus-galli, 336 h, two weeks after treatment
Method in brief: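 Greenhouse pre-emergence spray test: pots seeded one day before treatment received compound at rates of 8 or 4 lb/acre (38 gal/acre). Visual injury/control scores for Echinochloa crus-galli taken at two weeks, with watering by sub-irrigation only.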

Corn (CN) = assay: Pre-emergence herbicide test; assay type: in vivo; conditions: Zea mays, 336 h, two weeks after treatment
Method in brief: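 Visual injury/control ratings were made 2 weeks post-spray on corn pots seeded (4 seeds, seed-diameter depth) the day before treatment. Application was a belt-hood spray of 38 gal/acre delivering 8 lbs active per acre, with a 4 lbs/acre rate also formulated. Watering was by sub-irrigation throughout.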

Amaranth pigweed (PW) [15] = assay: Post-emergence herbicide test; assay type: in vivo, Amaranthus retroflexus; conditions: 336 h, two weeks after treatment
Method in brief: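 Visual injury or control ratings were made two weeks after spraying, with greenhouse watering by sub-irrigation only. Treatment was post-emergence, when pigweed seedlings had 1 or 2 true leaves, at 8 lbs active compound per acre (4 lbs/acre formulations also made) in a 38 gallons-per-acre spray volume.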

CNC(=O)Nc1nnc(C(F)(F)F)s1 [Example 1, 1-Methyl-3-[5-Trifluoromethyl-2-(1,3,4-Thiadiazolyl)] Urea]
pest or weed control at 2241.7 g/ha (Barnyard grass (BG) [1]; 2 lb/acre): 70% | pest or weed control at 4483.4 g/ha (Barnyard grass (BG) [1]; 4 lb/acre): 100% | pest or weed control at 8966.8 g/ha (Barnyard grass (BG) [1]; 8 lb/acre): 100% | Post-emergence activity, % control, Sinapis (Sinapis [2]): 10 | Pre-emergency activity, % control, Sinapis (Sinapis [3]; 1 lb/acre): 10 rating score (0–10 scale) | Pre-emergency activity, % control, Sinapis (Sinapis [3]; 2 lbs/acre): 10 rating score (0–10 scale) | herbicidal effectiveness / selectivity, in words [4]: extremely effective when applied to a variety of crops and weed species | pest or weed control at 4483.4 g/ha (Turnip (TP) [5]; 4 lb/acre): 90% | pest or weed control at 8966.8 g/ha (Turnip (TP) [5]; 8 lb/acre): 100% | LD50 [6]: 436 mg/kg | pest or weed control at 4483.4 g/ha (Amaranth pigweed (PW) [7]; 4 lb/acre): 90% | pest or weed control at 8966.8 g/ha (Amaranth pigweed (PW) [7]; 8 lb/acre): 90% | pest or weed control (Crabgrass (CG) [8]; 2 lb/acre): 60% | pest or weed control at 4483.4 g/ha (Crabgrass (CG) [8]; 4 lb/acre): 90% | pest or weed control at 8966.8 g/ha (Crabgrass (CG) [8]; 8 lb/acre): 100% | pest or weed control at 4483.4 g/ha (Cotton (CT) [9]; 4 lb/acre): 80% | pest or weed control at 8966.8 g/ha (Cotton (CT) [9]; 8 lb/acre): 100% | pest or weed control ([10]; 2 lb/acre): 50% | pest or weed control at 4483.4 g/ha ([10]; 4 lb/acre): 90% | pest or weed control at 8966.8 g/ha ([10]; 8 lb/acre): 100% | pest or weed control at 4483.4 g/ha (Crabgrass (CG) [11]; 4 lb/acre): 90% | pest or weed control at 8966.8 g/ha (Crabgrass (CG) [11]; 8 lb/acre): 100% | pest or weed control at 2241.7 g/ha (Turnip (TP) [12]; 2 lb/acre): 80% | pest or weed control at 4483.4 g/ha (Turnip (TP) [12]; 4 lb/acre): 100% | pest or weed control at 8966.8 g/ha (Turnip (TP) [12]; 8 lb/acre): 100% | pest or weed control at 2241.7 g/ha (Cotton (CT) [13]; 2 lb/acre): 100% | pest or weed control at 4483.4 g/ha (Cotton (CT) [13]; 4 lb/acre): 100% | pest or weed control at 8966.8 g/ha (Cotton (CT) [13]; 8 lb/acre): 100% | pest or weed control at 4483.4 g/ha (Barnyard grass (BG) [14]; 4 lb/acre): 90% | pest or weed control at 8966.8 g/ha (Barnyard grass (BG) [14]; 8 lb/acre): 90% | pest or weed control at 4483.4 g/ha (Corn (CN); 4 lb/acre): 30% | pest or weed control at 8966.8 g/ha (Corn (CN); 8 lb/acre): 90% | pest or weed control at 2241.7 g/ha (Amaranth pigweed (PW) [15]; 2 lb/acre): 100% | pest or weed control at 4483.4 g/ha (Amaranth pigweed (PW) [15]; 4 lb/acre): 100% | pest or weed control at 8966.8 g/ha (Amaranth pigweed (PW) [15]; 8 lb/acre): 100%
